# Data: patent publication US8822449B2, “Substituted aminoindanes and analogs thereof, and the pharmaceutical use thereof” (Sanofi, priority 2008, dated 2014)
# Molecular target: T1, sodium-proton exchanger of subtype 3 (NHE3) (Homo sapiens, UniProt P48764)
# T1 construct: expressed in transfected cells
# T1 sequence (P48764 26-834): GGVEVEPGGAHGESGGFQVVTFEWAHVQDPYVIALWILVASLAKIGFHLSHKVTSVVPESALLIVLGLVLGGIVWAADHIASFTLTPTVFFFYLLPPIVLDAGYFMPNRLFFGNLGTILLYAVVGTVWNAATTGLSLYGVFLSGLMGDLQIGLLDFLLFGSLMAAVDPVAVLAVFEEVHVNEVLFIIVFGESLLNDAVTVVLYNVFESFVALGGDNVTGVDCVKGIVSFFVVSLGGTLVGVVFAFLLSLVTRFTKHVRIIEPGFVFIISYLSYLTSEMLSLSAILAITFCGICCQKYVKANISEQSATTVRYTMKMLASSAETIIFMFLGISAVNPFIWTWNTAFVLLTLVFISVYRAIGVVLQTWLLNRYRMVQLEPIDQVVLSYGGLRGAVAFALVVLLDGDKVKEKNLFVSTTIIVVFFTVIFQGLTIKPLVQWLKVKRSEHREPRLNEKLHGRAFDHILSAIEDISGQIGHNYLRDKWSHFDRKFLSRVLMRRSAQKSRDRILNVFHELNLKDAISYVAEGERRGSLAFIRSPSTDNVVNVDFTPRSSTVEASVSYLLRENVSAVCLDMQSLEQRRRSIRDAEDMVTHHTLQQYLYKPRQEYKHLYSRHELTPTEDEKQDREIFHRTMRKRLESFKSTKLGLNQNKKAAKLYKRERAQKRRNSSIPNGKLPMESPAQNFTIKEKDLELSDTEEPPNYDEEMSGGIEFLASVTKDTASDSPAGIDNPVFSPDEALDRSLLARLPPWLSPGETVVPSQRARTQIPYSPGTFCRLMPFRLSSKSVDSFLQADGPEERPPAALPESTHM
# Assay: Recovery of intracellular pH (pHi) after acidification in LAP1 cells stably expressing NHE3 (BCECF fluorescence, FLIPR)
# Type: cell-based
# Conditions: LAP1 cells stably expressing NHE3; pH recovery after acidification; range 1 is % inhibition at 10 μM; read-out: Activity range (inhibitory effect on NHE3)
inhibition at 10 µM [%],IC50 [nM],Structure (SMILES)
20 to 50,,"Cc1cc(C)c2cccnc2c1O[C@H]1c2ccccc2CC[C@@H]1N1CCC[C@@H](N)C1 (racemic) [Example 78, (R)-1-[rac-trans-(1,2)-1-(5,7-dimethylquinolin-8-yloxy)-1,2,3,4-tetrahydronaphthalen-2-yl]piperidin-3-ylamine]"
,< 1000,"Cc1nnc(C)n1-c1ccc(O[C@H]2c3cc(Cl)ccc3C[C@@H]2N2CCOCC2)c(Cl)c1 [Example 566, 4-{trans-(1S,2S)-6-chloro-1-[2-chloro-4-(3,5-dimethyl-[1,2,4]triazol-4-yl)phenoxy]indan-2-yl}morpholine]"
,< 1000,"CS(=O)(=O)c1ccc(O[C@H]2c3cc(Cl)cc(Cl)c3C[C@@H]2N2CCCN(CCF)CC2)cc1 [Example 303, 1-[trans-(1S,2S)-4,6-dichloro-1-(4-methanesulfonylphenoxy)indan-2-yl]-4-(2-fluoroethyl)-[1,4]diazepane]"
20 to 50,,"Clc1cnccc1O[C@H]1c2ccccc2C[C@@H]1CN1CCCC1 (racemic) [Example 443, 3-chloro-4-(2-pyrrolidin-1-ylmethylindan-1-yloxy)pyridine]"
,1000 to 10000,"N#Cc1ccc(O[C@H]2c3ccccc3CC[C@@H]2N2CCC[C@@H](N)C2)c(F)c1F (racemic) [Example 509, 4-[rac-trans-(1,2)-2-((R)-3-aminopiperidin-1-yl)-1,2,3,4-tetrahydronaphthalen-1-yloxy]-2,3-difluorobenzonitrile]"
,1000 to 10000,"NS(=O)(=O)c1ccc(OC2c3ccccc3CC2N2CC[C@@H](O)C2)cc1 (mixture of isomers) [Example 527, 4-[rac-trans-(1,2)-2-((R)-3-Hydroxypyrrolidin-1-yl)indan-1-yloxy]benzenesulfonamide]"
,1000 to 10000,"CS(=O)(=O)c1ccc(O[C@H]2c3cc(Cl)cc(Cl)c3C[C@@H]2N2CC[C@@H](C#N)C2)cc1 [Example 105, (R)-1-[trans-(1S,2S)-4,6-dichloro-1-(4-methanesulfonylphenoxy)indan-2-yl]pyrrolidine-3-carbonitrile]"
20 to 50,,"N#Cc1cc(Br)ccc1O[C@H]1c2ccccc2CC[C@@H]1N1CCC[C@@H](N)C1 (racemic) [Example 369, 2-[rac-trans-(1,2)-2-((S)-3-aminopiperidin-1-yl)-1,2,3,4-tetrahydronaphthalen-1-yloxy]-5-bromobenzonitrile]"
,1000 to 10000,"CS(=O)(=O)c1ccc(O[C@H]2c3cc(Cl)cc(F)c3C[C@@H]2NC2CCCC2)cc1 [Example 751, [trans-(1S,2S)-6-Chloro-4-fluoro-1-(4-methanesulfonyl-phenoxy)-indan-2-yl]-cyclopentyl-amine]"
20 to 50,,"N[C@@H]1CCCN([C@H]2CCc3ccccc3[C@@H]2Oc2ccc(Cl)nc2)C1 (racemic) [Example 81, (R)-1-[rac-trans-(1,2)-1-(6-chloropyridin-3-yloxy)-1,2,3,4-tetrahydronaphthalen-2-yl]piperidin-3-ylamine]"
20 to 50,,"O=C(O[C@H]1c2ccccc2C[C@@H]1N1CCCC1)c1ccc(N2C(=O)CCC2=O)cc1 [Example 458, 4-(2,5-dioxopyrrolidin-1-yl)benzoic acid (1S,2S)-2-pyrrolidin-1-ylindan-1-yl ester]"
,1000 to 10000,"NCC1CCN([C@@H]2Cc3ccccc3[C@H]2Oc2cccc(NC(N)=O)c2)C1 (mixture of isomers) [Example 233, {3-[rac-trans-(1,2)-2-(3-aminomethylpyrrolidin-1-yl)indan-1-yloxy]phenyl}urea]"
,< 1000,"COc1cccc(F)c1O[C@@H]1c2ccccc2C[C@H]1N1CCC(CN)CC1 (racemic) [Example 604, C-{1-[rac-trans-(1,2)-1-(2-fluoro-6-methoxyphenoxy)indan-2-yl]piperidin-4-yl}methylamine]"
,1000 to 10000,"Cc1nnc(C)n1-c1ccc(O[C@H]2c3c(Cl)sc(Cl)c3CC[C@@H]2N2CCCC2)c(F)c1 (racemic) [Example 495, 4-[4-((4S,5S)-1,3-dichloro-5-pyrrolidin-1-yl-4,5,6,7-tetrahydrobenzo[c]thiophen-4-yloxy)-3-fluorophenyl]-3,5-dimethyl-4H-[1,2,4]triazole]"
20 to 50,,"CC(=O)Nc1cccc(O[C@H]2c3cccc(Cl)c3C[C@@H]2N2CCCC2)c1 (racemic) [Example 649, N-[3-(rac-trans-(1,2)-4-chloro-2-pyrrolidin-1-ylindan-1-yloxy)phenyl]acetamide]"
,1000 to 10000,"CCn1c(C)nn(-c2ccc(O[C@H]3c4cc(Cl)cc(Cl)c4C[C@@H]3N3CC[C@@H](O)C3)cc2)c1=O [Example 737, 2-{4-[trans-(1S,2S)-4,6-Dichloro-2-((R)-3-hydroxy-pyrrolidin-1-yl)-indan-1-yloxy]-phenyl}-4-ethyl-5-methyl-2,4-dihydro-[1,2,4]triazol-3-one]"
,1000 to 10000,"NS(=O)(=O)c1ccc(O[C@@H]2c3ccccc3C[C@H]2NC2CC2)c(F)c1 (racemic) [Example 703, 4-(rac-trans-(1,2)-2-Cyclopropylamino-indan-1-yloxy)-3-fluoro-benzenesulfonamide]"
20 to 50,,"N[C@H]1CCCN([C@H]2CCc3ccccc3[C@@H]2Oc2ccc(C(F)(F)F)cc2)C1 (racemic) [Example 186, (S)-1-[rac-trans-(1,2)-1-(4-trifluoromethylphenoxy)-1,2,3,4-tetrahydronaphthalen-2-yl]piperidin-3-ylamine]"
,< 1000,"Cc1nnc(C)n1-c1ccc(O[C@H]2c3cc(Cl)cc(Cl)c3C[C@@H]2N2CC[C@@](C)(O)C2)cc1 (racemic) [Example 111, (R)-1-{(1S,2S)-4,6-dichloro-1-[4-(3,5-dimethyl-[1,2,4]triazol-4-yl)phenoxy]indan-2-yl}-3-methylpyrrolidin-3-ol]"
,< 1000,"Cc1cn(-c2ccc(O[C@H]3c4cc(Cl)cc(F)c4C[C@@H]3N3CC[C@@H](O)C3)c(F)c2)c(C)n1 [Example 738, (R)-1-{trans-(1S,2S)-6-Chloro-1-[4-(2,4-dimethyl-imidazol-1-yl)-2-fluoro-phenoxy]-4-fluoro-indan-2-yl}-pyrrolidin-3-ol]"
,< 1000,"CS(=O)(=O)c1ccc(O[C@H]2c3cc(Cl)cc(Cl)c3C[C@@H]2N2CC[C@@H](N)C2)cc1 [Example 104, (R)-1-[trans-(1S,2S)-4,6-dichloro-1-(4-methanesulfonylphenoxy)indan-2-yl]pyrrolidin-3-ylamine]"
,1000 to 10000,"COc1ccc(C)cc1O[C@@H]1c2ccccc2C[C@H]1N1CCC(CN)C1 (mixture of isomers) [Example 607, C-{1-[rac-trans-(1,2)-1-(2-methoxy-5-methylphenoxy)indan-2-yl]pyrrolidin-3-yl}methylamine]"
20 to 50,,"Fc1ccc(O[C@H]2c3cc(Cl)cc(Cl)c3C[C@@H]2N2CCNCC2)c2ncccc12 [Example 592, 8-((1S,2S)-4,6-dichloro-2-piperazin-1-ylindan-1-yloxy)-5-fluoroquinoline]"
20 to 50,,"Cc1cc(O[C@H]2c3ccccc3CC[C@@H]2N2CCC[C@@H](N)C2)ccc1Cl (racemic) [Example 65, (R)-1-[rac-trans-(1,2)-1-(4-chloro-3-methylphenoxy)-1,2,3,4-tetrahydronaphthalen-2-yl]piperidin-3-ylamine]"
,1000 to 10000,"O=C1CCC(=O)N1c1ccc(O[C@H]2c3cc(Cl)cc(F)c3C[C@@H]2NC2CCCC2)c(F)c1 [Example 752, 1-[4-(trans-(1S,2S)-6-Chloro-2-cyclopentylamino-4-fluoro-indan-1-yloxy)-3-fluoro-phenyl]-pyrrolidine-2,5-dione]"
20 to 50,,"Cc1cc(C#N)cc(C)c1O[C@H]1c2ccccc2CC[C@@H]1N1CCC[C@@H](N)C1 (racemic) [Example 511, 4-[rac-trans-(1,2)-2-((R)-3-aminopiperidin-1-yl)-1,2,3,4-tetrahydronaphthalen-1-yloxy]-3,5-dimethylbenzonitrile]"
,< 1000,"N[C@@H]1CCCN([C@H]2CCc3ccccc3[C@@H]2Oc2ccc3ccncc3c2)C1 (racemic) [Example 84, (R)-1-[rac-trans-(1,2)-1-(isoquinolin-7-yloxy)-1,2,3,4-tetrahydronaphthalen-2-yl]piperidin-3-ylamine]"
,< 1000,"NS(=O)(=O)c1ccc(O[C@H]2c3cc(Cl)cc(Cl)c3C[C@@H]2N2CCCC2)cc1 [Example 457, 4-((1S,2S)-4,6-dichloro-2-pyrrolidin-1-ylindan-1-yloxy)benzenesulfonamide]"
,1000 to 10000,"COc1cccc(F)c1O[C@@H]1c2ccccc2C[C@H]1N1C[C@H]2CNC[C@H]2C1 (racemic) [Example 5, 2-[rac-trans-(1,2)-1-(2-fluoro-6-methoxyphenoxy)indan-2-yl]octahydropyrrolo[3,4-c]pyrrole]"
,1000 to 10000,"N[C@@H]1CCCN([C@@H]2Cc3ccccc3[C@H]2Oc2cccc3[nH]ccc23)C1 (racemic) [Example 30, (R)-1-[rac-trans-(1,2)-1-(1H-indol-4-yloxy)indan-2-yl]piperidin-3-ylamine]"
